The source of these data is ChEMBL document CHEMBL1142978, “Probing the anticancer activity of nucleoside analogues: a QSAR model approach using an internally consistent training set” (J Med Chem, 2007).

The assay can be described thus: Cytotoxicity against mouse L1210/0 cells after 48 hrs. It counts as cell-based. Conditions: Mus musculus, L1210/0, 48 h.

Where a SMILES comes first, the peptide text is derived from it. Bounds are passed on as bounds.

`CC(C)C[C@H](NC(=O)[C@@H]1CCCN1)C(=O)NCC(N)=O` (H-Pro-Leu-Gly-NH2) registered an IC50 greater than 200 µM.
The value for `COC1=C(OC)/C(=C/C(n2cnc3c(N)ncnc32)P(=O)(O)O)OC1=O` (stereo not drawn) was 11.4 µM.
As for `COc1c(C)c(-c2cn([C@H]3C[C@H](O)[C@@H](CO)O3)c(=O)[nH]c2=O)c(OC)c2ccccc12`, the figure is greater than 200 µM; as for `O=c1[nH]cnc2c1nnn2C[C@H]1CCC[C@H]1CO`, greater than 200 µM.
The molecule `CCCc1cn([C@H]2C[C@H](O)[C@@H](CO)O2)c(=O)[nH]c1=O` showed an IC50 greater than 200 µM.
`O=c1[nH]c(=O)n([C@H]2C[C@H](O)[C@@H](CO)O2)cc1Br` [BROXURIDINE]: the IC50 was 84.7 µM.
`Nc1ncnc2c1ncn2[C@@H]1O[C@H](/C=C\Cl)[C@H](O)[C@@H]1O` displayed a 50% inhibitory concentration (IC50) of 143 µM.
`O=c1[nH]c(=O)n([C@H]2C[C@H](O)[C@@H](CO)O2)cc1O` returned an IC50 greater than 200 µM.
On to `CC1=C(C)C(=O)C(c2cn([C@H]3C[C@H](O)[C@@H](CO)O3)c(=O)[nH]c2=O)=C(C)C1=O`, for which the 50% inhibitory concentration (IC50) stood at 174 µM.
The value for `O=C1C=CN(COCCO)C(=O)C1` was greater than 200 µM.
As for `CC(=O)OCCOCn1cnc2c(=S)[nH]c(N)nc21`, the figure is 3.2 µM; as for `O[C@H]1C[C@@H](Cn2cnc3c(-c4ccccc4)ncnc32)c2ccccc21`, greater than 200 µM.
As for `Nc1ncnc2c1ncn2C1OC(/C=N/O)CC1O` (stereo not drawn), the figure is greater than 200 µM; as for `CN(C)c1nc2c(=O)[nH]c(N)nc2n1COCCO`, greater than 200 µM.
As for `Cc1ccc(S(=O)(=O)/C=C/[C@H]2O[C@@H](n3cnc4c(N)ncnc43)[C@@H](O)[C@H]2O)cc1`, half-maximal inhibition (IC50) required 54 µM.
The value for `O=C1O/C(=C\Cn2cc(Br)c(=O)[nH]c2=O)C(OCc2ccccc2)=C1OCc1ccccc1` was 7.5 µM.
The value for `CC1(C)[C@@H](CCCO)C[C@H]1n1cnc2c(Cl)nc(N)nc21` was greater than 200 µM; that for `OCCOCn1cnc2c(S)nc(F)nc21` was 170 µM.
The molecule `O=c1[nH]c(=O)n([C@H]2C[C@H](O)[C@@H](CO)O2)cc1CO` displayed an IC50 of 9.18 µM.
The value for `Nc1ncnc2c1ncn2[C@@H]1C[C@@H]2COC[C@H]2[C@H]1CO` was greater than 200 µM.
As for `CC1=C(C)C(=O)C(c2cn([C@H]3C[C@H](O)[C@@H](CO)O3)c(=O)[nH]c2=O)=CC1=O`, the figure is 112 µM; as for `CC1(C)[C@@H](Cn2cnc3c(Cl)nc(N)nc32)CC[C@@]1(C)CO`, 50 µM.
Consider `CC1(C)[C@@H](CCCO)C[C@H]1n1cnc2c(=O)[nH]c(N)nc21`, for which the IC50 was greater than 200 µM.
`COC1=C(OC)C(O)(CCn2cnc3c(N)ncnc32)OC1=O` (stereo not drawn): the concentration for half-maximal inhibition (IC50) was greater than 200 µM.
As for `C#C[C@H]1O[C@@H](n2cnc3c(N)ncnc32)[C@@H](O)[C@H]1O`, the figure is 1.2 µM.
`O=c1[nH]c(=O)n(COCCO)cc1F` registered an IC50 greater than 200 µM.
As for `N#Cc1cn([C@H]2C[C@H](O)[C@@H](CO)O2)c(=O)[nH]c1=O`, the figure is greater than 200 µM; as for `O=c1[nH]cnc2c1ncn2CC1CCC(CO)C1` (stereo not drawn), greater than 200 µM.
On to `O=c1[nH]cnc2c1ncn2[C@@H]1C[C@@H]2COC[C@H]2[C@H]1CO`, for which the 50% inhibitory concentration (IC50) is greater than 200 µM.
For `Cc1ccc(-c2ncnc3c2ncn3C[C@@H]2C[C@H](CO)c3ccccc32)cc1`, it took 15.4 µM to reach half-maximal inhibition (IC50).
As for `N#CSc1cn([C@H]2C[C@H](O)[C@@H](CO)O2)c(=O)[nH]c1=O`, the figure is 78.9 µM.
In turn, `O=C1O/C(=C\Cn2cc(C(F)(F)F)c(=O)[nH]c2=O)C(O)=C1O` yielded an IC50 greater than 200 µM.
As for `O=c1[nH]c(=O)n(COCCO)cc1I`, the figure is greater than 200 µM; as for `O=C1OC(C(O)Cn2cc(F)c(=O)[nH]c2=O)C(OCc2ccccc2)=C1OCc1ccccc1` (stereo not drawn), 140 µM.
With `CC(=O)OCCOCn1cnc2c(Cl)nc(I)nc21`, the IC50 is 8.6 µM.
As for `CC1(C)[C@@H](Cn2nnc3c(N)nc(N)nc32)CC[C@@]1(C)CO`, the figure is greater than 200 µM; as for `Nc1nc(I)nc2c1ncn2COCCO`, greater than 200 µM.
The value for `CCCNc1ncnc2c1ncn2C[C@@H]1C[C@H](CO)c2ccccc21` was greater than 200 µM.
